Reference: patent publication US10167262B2, “Herbicidal substituted 3-arylpyrazoles” (FMC CORPORATION, priority 2014, dated 2019)

Assays:
Assay type in all cases: in vivo
[1] = tested on: barnyardgrass (Echinochloa crus-galli); experiment: Test A pre-/postemergence greenhouse herbicide test, visual injury rating 0-100; conditions: 1000 g ai/ha
Method in brief: (§1)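 Ratings are visual, 0 to 100 relative to untreated plants, taken approximately 10 days post-treatment in the greenhouse. Both preemergence soil and postemergence foliar routes were used with surfactant-containing non-phytotoxic solvent formulations.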

[2] = tested on: velvetleaf (Abutilon theophrasti); experiment: as above; conditions: 1000 g ai/ha
Method in brief: as §1

[3] = tested on: pigweed (Amaranthus retroflexus); experiment: as above; conditions: 1000 g ai/ha
Method in brief: as §1

[4] = tested on: large (Lg) crabgrass (Digitaria sanguinalis); experiment: as above; conditions: 1000 g ai/ha
Method in brief: as §1

[5] = tested on: morningglory (Ipomoea spp.); experiment: as above; conditions: Preemergence, 1000 g ai/ha
Method in brief: as §1

corn (Zea mays) = experiment: as above; conditions: 1000 g ai/ha
Method in brief: as §1

[6] = tested on: wheat (Triticum aestivum); experiment: as above; conditions: 1000 g ai/ha
Method in brief: as §1

[7] = tested on: giant foxtail (Setaria faberii); experiment: as above; conditions: 1000 g ai/ha
Method in brief: as §1

[8] = tested on: blackgrass (Alopecurus myosuroides); experiment: Test C pre-/postemergence greenhouse test, plant response rating 0-100; conditions: Postemergence
Method in brief: (§2)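 Visual 0–100 control scores, taken 13 to 15 days post-application in a greenhouse, reflect treatment preemergence (seed in loam soil with sand) or postemergence (2–18 cm plants in peat moss, vermiculite medium). A dash marks no result.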

[9] = tested on: ragweed (common ragweed, Ambrosia elatior); experiment: as above; conditions: Postemergence
Method in brief: as §2

wild oat (Avena fatua) = experiment: Test C postemergence greenhouse test, plant response rating 0-100
From the text: (§3) At the same time, plants selected from these crop and weed species and also winter barley (Hordeum vulgare), bermudagrass (Cynodon dactylon), downy bromegrass (Bromus tectorum), canarygrass (Phalaris minor), cocklebur (common cocklebur, Xanthium strumarium), woolly cupgrass (Eriochloa villosa), deadnettle (henbit deadnettle, Lamium amplexicaule), green foxtail (Setaria viridis), goosegrass (Eleusine indica), surinam grass (Brachiaria decumbens), windgrass (Apera spica-venti), chickweed (common chickweed, Stellaria media), kochia (Kochia scoparia), and wild oat (Avena fatua), were planted in pots containing Redi-Earth® planting medium (Scotts Company, 14111 Scottslawn Road, Marysville, Ohio 43041) comprising spaghnum peat moss, vermiculite, wetting agent and starter nutrients and treated with postemergence applications of test chemicals formulated in the same manner. Plants ranged in height from 2 to 18 cm (1- to 4-leaf stage) for postemergence treatments. Treated plants and controls were maintained in a greenhouse for 13 to 15 days, after which time all species were compared to controls and visually evaluated. Plant response ratings, summarized in Table C, are based on a scale of 0 to 100 where 0 is no effect and 100 is complete control. A dash (-) response means no test result.

[10] = tested on: chickweed (common chickweed, Stellaria media); experiment: as above
From the text: as §3

kochia (Kochia scoparia) = experiment: as above
From the text: as §3

Question: For `CCn1cc(C(=O)c2ccccc2)c(-c2cc(Br)cc(Br)c2)n1` [Compound 38], which “Plant response rating (0 to 100 scale), Barnyardgrass” value ([1]; Postemergence) is on record?
Answer: Its value is 0.

Question: What about the “Plant response rating (0 to 100 scale), Barnyardgrass” value ([1]; Preemergence) of the same compound?
Answer: The value was 0.

Question: And the “Plant response rating (0 to 100 scale), Velvetleaf” value ([2]; Postemergence)?
Answer: Its value is 90.

Question: And the “Plant response rating (0 to 100 scale), Velvetleaf” value ([2]; Preemergence)?
Answer: Its value is 80.

Question: What about the “Plant response rating (0 to 100 scale), Pigweed” value ([3]; Postemergence) of the same compound?
Answer: The value was 100.

Question: What about the “Plant response rating (0 to 100 scale), Pigweed” value ([3]; Preemergence) of the same compound?
Answer: Its value is 90.

Question: And the “Plant response rating (0 to 100 scale), Crabgrass, Large” value ([4]; Postemergence)?
Answer: Its value is 0.

Question: What about the “Plant response rating (0 to 100 scale), Crabgrass, Large” value ([4]; Preemergence) of the same compound?
Answer: The value was 0.

Question: And the “Plant response rating (0 to 100 scale), Morningglory” value [5]?
Answer: The value was 0.

Question: What about the “Plant response rating (0 to 100 scale), Corn” value (corn (Zea mays); Postemergence) of the same compound?
Answer: The value was 0.

Question: And the “Plant response rating (0 to 100 scale), Corn” value (corn (Zea mays); Preemergence)?
Answer: The value was 0.

Question: And the “Plant response rating (0 to 100 scale), Wheat” value ([6]; Postemergence)?
Answer: Its value is 0.

Question: And the “Plant response rating (0 to 100 scale), Wheat” value ([6]; Preemergence)?
Answer: The value was 0.

Question: And the “Plant response rating (0 to 100 scale), Foxtail, Giant” value ([7]; Postemergence)?
Answer: The value was 0.

Question: And the “Plant response rating (0 to 100 scale), Foxtail, Giant” value ([7]; Preemergence)?
Answer: The value was 0.

Question: And the “Plant response rating (0 to 100), Blackgrass” value ([8]; 31 g ai/ha)?
Answer: Its value is 0.

Question: What about the “Plant response rating (0 to 100), Blackgrass” value ([8]; 62 g ai/ha) of the same compound?
Answer: The value was 0.

Question: And the “Plant response rating (0 to 100), Blackgrass” value ([8]; 125 g ai/ha)?
Answer: Its value is 0.

Question: What about the “Plant response rating, Blackgrass” value ([8]; 250 g ai/ha, scale 0 to 100) of the same compound?
Answer: Its value is 5.

Question: What about the “Plant response rating (0 to 100), Ragweed” value ([9]; 62 g ai/ha) of the same compound?
Answer: Its value is 10.

Question: And the “Plant response rating (0 to 100), Ragweed” value ([9]; 125 g ai/ha)?
Answer: Its value is 20.

Question: What about the “Plant response rating, Ragweed” value ([9]; 250 g ai/ha, scale 0 to 100) of the same compound?
Answer: Its value is 35.

Question: And the “Plant response rating (0 to 100), Oat, Wild” value (wild oat (Avena fatua); 62 g ai/ha)?
Answer: The value was 0.

Question: What about the “Plant response rating (0 to 100), Oat, Wild” value (wild oat (Avena fatua); 125 g ai/ha) of the same compound?
Answer: The value was 0.

Question: What about the “Plant response rating, Oat, Wild” value (wild oat (Avena fatua); 250 g ai/ha, scale 0 to 100) of the same compound?
Answer: The value was 0.

Question: And the “Plant response rating (0 to 100), Chickweed” value ([10]; 31 g ai/ha)?
Answer: The value was 20.

Question: What about the “Plant response rating (0 to 100), Chickweed” value ([10]; 62 g ai/ha) of the same compound?
Answer: The value was 50.

Question: What about the “Plant response rating (0 to 100), Chickweed” value ([10]; 125 g ai/ha) of the same compound?
Answer: Its value is 60.

Question: And the “Plant response rating, Chickweed” value ([10]; 250 g ai/ha, scale 0 to 100)?
Answer: Its value is 100.

Question: And the “Plant response rating (0 to 100), Kochia” value (kochia (Kochia scoparia); 62 g ai/ha)?
Answer: The value was 35.

Question: And the “Plant response rating, Kochia” value (kochia (Kochia scoparia); 250 g ai/ha, scale 0 to 100)?
Answer: The value was 50.
